Where two headings read alike, the source gives them in different places.
System: PANC-1 cells
Experiment: cell viability assay in PANC-1 cells (compound alone, + 100 ng/ml TNFa, + 300 ng/ml TRAIL)
Type: cell-based
[1] = Homo sapiens, PANC-1, compound alone, Tables 6-10, read-out: IC50 (μM) in cell viability assay in PANC-1 cells: Compound alone
[2] = with 100 ng/ml TNFa, Tables 6-10, read-out: IC50 (μM) in cell viability assay in PANC-1 cells: Compound + 100 ng/ml TNFa
[3] = with 300 ng/ml TRAIL, Tables 6-10, read-out: IC50 (μM) in cell viability assay in PANC-1 cells: Compound + 300 ng/ml TRAIL
[4] = Homo sapiens, PANC-1 cells, compound alone, read-out: IC50 (uM) in cell viability assay in PANC-1 cells, Cmpnd alone
[5] = PANC-1 cells, + 100 ng/ml TNFa, read-out: IC50 (uM) in cell viability assay in PANC-1 cells, Cmpnd + 100 ng/ml TNFa
[6] = PANC-1 cells, + 300 ng/ml TRAIL, read-out: IC50 (uM) in cell viability assay in PANC-1 cells, Cmpnd + 300 ng/ml TRAIL
[7] = Homo sapiens, PANC-1, compound alone, Tables 15-18, read-out: IC50 (uM) in cell viability assay in PANC-1 cells: Cmpnd alone
[8] = with 100 ng/ml TNFa, Tables 15-18, read-out: IC50 (uM) in cell viability assay in PANC-1 cells: Cmpnd + 100 ng/ml TNFa
[9] = with 300 ng/ml TRAIL, Tables 15-18, read-out: IC50 (uM) in cell viability assay in PANC-1 cells: Cmpnd + 300 ng/ml TRAIL
[10] = compound alone, Tables 6-10, read-out: IC50 (μM) in cell viability assay in PANC-1 cells: Compound alone

SMILES	IC50 [1]	IC50 [2]	IC50 [3]	other results
CN[C@@H](C)C(=O)N[C@H](C(=O)N1C[C@@H](NC(=O)c2ccc(C(=O)N[C@H]3C[C@@H](C(=O)N[C@@H]4CCCc5ccccc54)N(C(=O)[C@@H](NC(=O)[C@H](C)NC)C(C)(C)C)C3)nc2)C[C@H]1C(=O)N[C@@H]1CCCc2ccccc21)C(C)(C)C [Compound P3-94]	–	–	–	IC50 [4]: > 1 µM; IC50 [5]: 0.003 µM; IC50 [6]: 0.006 µM
CN[C@@H](C)C(=O)N[C@H](C(=O)N1CCCC1C(=O)N[C@H](COCC#CC#CCOC[C@@H](NC(=O)[C@H](C)NC(=O)[C@H](NC(=O)[C@@H](C)NC)C1CCCCC1)C(C)C)C1CCCCC1)C(C)(C)C (stereo partly drawn) [Compound H-7]	–	–	–	IC50 [7]: > 1 µM; IC50 [8]: 0.0007 µM; IC50 [9]: 0.0007 µM
CC[C@@H](NC)C(=O)N[C@@H](C(=O)N[C@@H](C)C(=O)N[C@H](COCC#CC#CCOC[C@@H](NC(=O)C1CCCN1C(=O)[C@@H](NC(=O)[C@H](C)NC)C(C)(C)C)C1CCCCC1)C(C)C)C1CCCCC1 (stereo partly drawn) [Compound H-9]	–	–	–	IC50 [7]: > 1 µM; IC50 [8]: 0.005 µM; IC50 [9]: 0.004 µM
CN[C@@H](C)C(=O)N[C@H](C(=O)N1C[C@@H](NC(=O)c2cc(C(=O)N[C@H]3C[C@@H](C(=O)N[C@H](C)c4ccc(Cl)cc4)N(C(=O)[C@@H](NC(=O)[C@H](C)NC)C(C)(C)C)C3)[nH]n2)C[C@H]1C(=O)N[C@H](C)c1ccc(Cl)cc1)C(C)(C)C [Compound P3-108]	–	–	–	IC50 [4]: > 1 µM; IC50 [5]: 0.012 µM; IC50 [6]: 0.036 µM
CN[C@@H](C)C(=O)N[C@H](C(=O)N1CCC[C@H]1C(=O)N[C@H]1c2ccccc2C[C@@H]1OC(=O)CCCC(=O)O[C@H]1Cc2ccccc2[C@@H]1NC(=O)[C@@H]1CCCN1C(=O)[C@@H](NC(=O)[C@H](C)NC)C(C)(C)C)C(C)(C)C [Compound 118]	> 1 µM	0.0007 µM	0.0008 µM	–
CN[C@@H](C)C(=O)N[C@H](C(=O)N1CCC[C@H]1CN(CC#CC#CCN(CCc1ccccc1)C[C@@H]1CCCN1C(=O)[C@@H](NC(=O)[C@H](C)NC)C(C)(C)C)CCc1ccccc1)C(C)(C)C [Compound P4-20]	–	–	–	IC50 [7]: > 1 µM; IC50 [8]: 0.061 µM; IC50 [9]: 0.041 µM
CN[C@@H](C)C(=O)N[C@H](C(=O)N1C[C@@H](NC(=O)c2ccc(C#Cc3ccc(C(=O)N[C@H]4C[C@@H](C(=O)N[C@@H]5CCCc6ccccc65)N(C(=O)[C@@H](NC(=O)[C@H](C)NC)C(C)(C)C)C4)cc3)cc2)C[C@H]1C(=O)N[C@@H]1CCCc2ccccc21)C(C)(C)C [Compound P3-100]	–	–	–	IC50 [4]: > 1 µM; IC50 [5]: 0.054 µM; IC50 [6]: 0.055 µM
CN[C@@H](C)C(=O)N[C@H](C(=O)N1C[C@@H](NC(=O)c2cccc(C(=O)N[C@H]3C[C@@H](C(=O)NC4CCSc5ccccc54)N(C(=O)[C@@H](NC(=O)[C@H](C)NC)C(C)(C)C)C3)c2)C[C@H]1C(=O)NC1CCSc2ccccc21)C(C)(C)C (single isomer, unassigned) [Compound 68]	–	0.029 µM	0.019 µM	IC50 [10]: > 1 µM
CN[C@@H](C)C(=O)N[C@@H](CCCCCC[C@H](NC(=O)[C@H](C)NC)C(=O)N1CCC[C@H]1CNC(=O)c1ccccc1)C(=O)N1CCC[C@H]1CNC(=O)c1ccccc1 [Compound 16]	> 1 µM	> 1 µM	> 1 µM	–
CN[C@@H](C)C(=O)N[C@H](C(=O)N1CCC[C@H]1C(=O)N[C@H]1c2ccccc2C[C@@H]1OCC#CC#CCO[C@H]1Cc2ccccc2[C@@H]1NC(=O)[C@@H]1CCCN1C(=O)[C@@H](NC(=O)[C@H](C)NC)C(C)(C)C)C(C)(C)C [Compound 121]	> 1 µM	0.0013 µM	0.0015 µM	–
CC[C@@H](NC(=O)[C@@H]1C[C@H](NC(=O)c2cccc(C(=O)N[C@H]3C[C@@H](C(=O)N[C@H](CC)c4ccccc4)N(C(=O)[C@@H](NC(=O)[C@H](C)NC)C(C)(C)C)C3)c2)CN1C(=O)[C@@H](NC(=O)[C@H](C)NC)C(C)(C)C)c1ccccc1 [Compound 1]	> 1 µM	0.0023 µM	0.0019 µM	–
CN[C@@H](C)C(=O)N[C@H](C(=O)N1C[C@@H](NC(=O)c2cccc(C(=O)N[C@H]3C[C@@H](C(=O)NCCc4ccc(N)cc4)N(C(=O)[C@@H](NC(=O)[C@H](C)NC)C(C)(C)C)C3)c2)C[C@H]1C(=O)NCCc1ccc(N)cc1)C(C)(C)C [Compound 4]	> 1 µM	> 1 µM	0.739 µM	–
CN[C@@H](C)C(=O)N[C@H](C(=O)N1CCC[C@H]1C(=O)N[C@H](C)c1ccccc1)[C@H](C)n1cc(CCCc2cn([C@@H](C)[C@H](NC(=O)[C@H](C)NC)C(=O)N3CCC[C@H]3C(=O)N[C@H](C)c3ccccc3)nn2)nn1 [Compound 115]	> 1 µM	0.057 µM	0.063 µM	–
CN[C@@H](C)C(=O)N[C@H](C(=O)N1C[C@@H](NC(=O)c2nc[nH]c2C(=O)N[C@H]2C[C@@H](C(=O)N[C@H](C)c3ccccc3)N(C(=O)[C@@H](NC(=O)[C@H](C)NC)C(C)(C)C)C2)C[C@H]1C(=O)N[C@H](C)c1ccccc1)C(C)(C)C [Compound P3-92]	–	–	–	IC50 [4]: > 1 µM; IC50 [5]: 0.099 µM; IC50 [6]: 0.072 µM
CN[C@@H](C)C(=O)N[C@H](C(=O)N1C[C@@H](NC(=O)c2cccc(C(=O)N[C@H]3C[C@@H](C(=O)NC4CCOc5ccccc54)N(C(=O)[C@@H](NC(=O)[C@H](C)NC)C(C)(C)C)C3)c2)C[C@H]1C(=O)NC1CCOc2ccccc21)C(C)(C)C (single isomer, unassigned) [Compound 66]	–	0.012 µM	0.013 µM	IC50 [10]: > 1 µM
CN[C@@H](C)C(=O)N[C@H](C(=O)N[C@@H](CCNC(=O)c1cc(N)cc(C(=O)N[C@H]2C[C@@H](C(=O)N[C@@H]3CCCc4ccccc43)N(C(=O)[C@@H](NC(=O)[C@H](C)NC)C(C)(C)C)C2)c1)C(=O)N[C@H](C)C(C)C)C(C)C [Compound 180]	> 1 µM	0.124 µM	0.201 µM	–
CN[C@@H](C)C(=O)N[C@@H](CCCCCC[C@H](NC(=O)[C@H](C)NC)C(=O)N1CCC[C@H]1CNC(=O)c1ccccn1)C(=O)N1CCC[C@H]1CNC(=O)c1ccccn1 [Compound P2-47]	–	–	–	IC50 [7]: > 1 µM; IC50 [8]: 0.108 µM; IC50 [9]: 0.153 µM

Second part, led by results:

IC50 [1]	SMILES	IC50 [2]	IC50 [3]	other results
> 1 µM	CN[C@@H](C)C(=O)N[C@@H](CCCCNC(=O)C[C@H](NC(=O)[C@H](C)NC)C(=O)N1CCC[C@H]1C(=O)N[C@@H]1CCCc2ccccc21)C(=O)N1CCC[C@H]1C(=O)N[C@@H]1CCCc2ccccc21 [Compound 199]	0.046 µM	0.074 µM	–
> 1 µM	CN[C@@H](C)C(=O)NC(C(=O)N1C[C@@H](NC(=O)c2cccc(C(=O)N[C@H]3CC(C(=O)N[C@H](CO)[C@H](O)c4ccccc4)N(C(=O)[C@@H](NC(=O)[C@H](C)NC)C(C)(C)C)C3)c2)CC1C(=O)N[C@H](CO)[C@@H](O)c1ccccc1)C(C)(C)C (stereo partly drawn) [Compound 42]	0.753 µM	0.645 µM	–
> 1 µM	CN[C@@H](C)C(=O)NC(C(=O)N[C@@H](CCNC(=O)CCc1cn([C@H]2C[C@@H](C(=O)N[C@@H]3CCCc4ccccc43)N(C(=O)[C@@H](NC(=O)[C@H](C)NC)C(C)(C)C)C2)nn1)C(=O)N[C@H](C)c1ccccc1)C(C)(C)C (stereo partly drawn) [Compound 197]	0.128 µM	0.18 µM	–
> 1 µM	CN[C@@H](C)C(=O)N[C@H]1CCN(C(=O)c2ccc(C(=O)N[C@H]3C[C@@H](C(=O)N[C@@H]4CCCc5ccccc54)N(C(=O)[C@@H](NC(=O)[C@H](C)NC)C(C)(C)C)C3)cc2)C1 [Compound 187]	0.62 µM	0.6 µM	–
> 1 µM	CN[C@@H](C)C(=O)N[C@H](C(=O)N1C[C@@H](NC(=O)c2cccc(C(=O)N[C@H]3C[C@@H](C(=O)N[C@H](COC)[C@@H](C)OC)N(C(=O)[C@@H](NC(=O)[C@H](C)NC)C(C)(C)C)C3)c2)C[C@H]1C(=O)N[C@H](COC)[C@@H](C)OC)C(C)(C)C [Compound 69]	> 1 µM	> 1 µM	–
> 1 µM	CN[C@@H](C)C(=O)N[C@H](C(=O)N1CCC[C@H]1CN1CCC[C@H]1C(c1ccccc1)c1ccccc1)[C@@H](C)OCCCCCCO[C@H](C)[C@H](NC(=O)[C@H](C)NC)C(=O)N1CCC[C@H]1CN1CCC[C@H]1C(c1ccccc1)c1ccccc1 [Compound 83]	0.494 µM	0.437 µM	–
> 1 µM	CN[C@@H](C)C(=O)NC(C(=O)N[C@@H](CCNC(=O)CCc1cn([C@H]2C[C@@H](C(=O)N[C@@H]3CCCc4ccccc43)N(C(=O)[C@@H](NC(=O)[C@H](C)NC)C(C)(C)C)C2)nn1)C(=O)N[C@H](C)C(C)C)C(C)(C)C (stereo partly drawn) [Compound 198]	0.109 µM	0.069 µM	–
> 1 µM	CN[C@@H](C)C(=O)N[C@H](C(=O)N1C[C@@H](NC(=O)c2cccc(C(=O)N[C@H]3C[C@@H](C(=O)N[C@H](C)c4ccccn4)N(C(=O)[C@@H](NC(=O)[C@H](C)NC)C(C)(C)C)C3)c2)C[C@H]1C(=O)N[C@H](C)c1ccccn1)C(C)(C)C [Compound 25]	0.375 µM	0.293 µM	–
> 1 µM	CN[C@@H](C)C(=O)N[C@H](C(=O)N1C[C@@H](NC(=O)c2cccc(C(=O)N[C@H]3C[C@@H](C(=O)NCc4cccc5[nH]ccc45)N(C(=O)[C@@H](NC(=O)[C@H](C)NC)C(C)(C)C)C3)c2)C[C@H]1C(=O)NCc1cccc2[nH]ccc12)C(C)(C)C [Compound 7]	0.383 µM	0.217 µM	–
